# Reference: patent publication US20240141291A1, “FUNCTIONAL BRAIN REGION-SPECIFIC NEURAL SPHEROIDS AND METHODS OF USE” (THE UNITED STATES OF AMERICA, AS REPRESENTED BY THE …, priority 2021, published 2024)
# “And” between values parts separate entries of the source, which are not always exact repeats. Equal entries are not always repeated. “Also recorded” adds a separate entry of the source.
# Experiments:
# Assay type in all cases: cell-based, human
# VTA-like spheroids [1] = assay: FLIPR calcium activity profiling, compound addition (Examples 1-2); conditions: FLIPR recordings 1-, 30-, 70-min after compound (t1, t30, t70)
# Description: (§1) To examine neuronal activity changes as a response to compound treatment, calcium activity was assessed using a Fluorescent Imaging Plate Reader (FLIPR) Penta (Molecular Devices). FLIPR Calcium 6 Assay kits were purchased from Molecular Devices (PN: R8190). On day of activity profiling, 96-well or 384-well ULA round bottom (black sides, clear bottom) plates containing spheroids were removed from incubator. Fresh FLIPR Calcium 6 dye was prepared by diluting each vial in 10 ml of freshly prepared, phenol-free complete spheroid maturation media and vortexed for 2 minutes. Half of the media was removed from each well (45 μl from 384-well plate wells, 100 ul from 96-well plate wells) and replaced with equal amounts freshly prepared FLIPR Calcium 6 dye, followed by a 2-hour incubation in the dark in a 37 C, 5% CO2 incubator. After 2-hours, plates were removed and kept at room temperature for 10 minutes, then imaged and calcium activity read using the Molecular Devices FLIPR Penta High-Throughput Cellular Screening System. The FLIPR incubator stage was pre-warmed to 37° C. approximately 30 minutes prior to imaging. Standard filter sets were used for Cal6 imaging (excitation 470-495 and emission 515-575 nm). FLIPR recordings were obtained with the camera in normal mode, and settings included: gain was set to 2.5, exposure time to 0.03 seconds, and excitation intensity to 50%. Fluorescent image reads were taken every 0.6 seconds for a total of 1000 reads over a total run time of 10 minutes. Four recordings total were captured: baseline activity, 1-min after compound treatment, 30- and 70-min after compound treatment.
# (§2) After baseline activity, cell plates were removed from the FLIPR and transferred to a 384-well pin tool instrument. Prior to compound addition, the pin tool was subjected to 4 wash cycles exposing the pins to water, methanol, and DMSO each time. Compounds, including either “QC compounds” (compounds with known mechanism of action, listed in results) or the mu opioid receptor selective-agonist DAMGO, were transferred from a compound source plate to the 384-well spheroid plate. Immediately after compound transfer, the cell plate was placed back in the FLIPR for the recording that was 1-min after compound transfer to begin. After this 10-min recording, another recording was captured 30-min after compounds were transferred. After the 30-min recording, the plate was again removed from the FLIPR and transferred to the pin tool instrument. During this phase of compound transfer, naloxone was transferred to wells that received DAMGO during the first compound transfer. Following this second compound transfer, the cell plate was placed back in the FLIPR and a final recording was obtained 30-min later, and 70-min after the initial compound transfer.
# (§3) The FLIPR software ScreenWorks PeakPro 2.0 was used for the initial analysis of calcium activity using automated peak detection settings. With these settings, average peak statistics over each 10-min recording for each well were exported from PeakPro to Microsoft Excel. ScreenWorks Peak Pro 2.0 software was used to extract 17 activity features describing different aspects of calcium activity profiles. These included peak amplitude (PkA), peak amplitude standard deviation (PkASD), peak count (PkCt), peak rate (measured as peaks per minute, PpM), peak rate SD, peak spacing (PkSp), peak spacing SD (PkSpSD), peak spacing regularity, area under the curve (AUC), AUC SD, peak rise slope, peak rise slope SD, peak rise time (PkRt), peak ride time SD (PkRtSD), peak decay slope, peak decay slope SD, peak decay time (PkDt), and peak decay time SD (PkDtSD). To assess variability of these peak parameters, percent coefficients of variance (CV) were calculated by dividing the standard deviation/mean and multiplying by 100 for each designer spheroid type, and those with % CV's […] 20% were removed from future analysis. […]
# PFC-like spheroids [2] = assay: as above; conditions: FLIPR recordings 1-, 30-, 70-min after compound (t1, t30, t70)
# Description: as §1, §2, §3
# A53T VTA-like spheroids = assay: Parkinson's Disease model, FLIPR calcium activity after compound treatment; conditions: 90-min after treatment; for reversal of A53T-induced deficits (peak count, peak width): Ropinirole 1, 3 and 10 μM
# Description: (§4) Fluorescent Imaging plate Reader (FLIPR): The FLIPR Penta (Molecular Devices) was used to assess calcium fluorescence across the 384-well plate simultaneously and to observe changes after treatment with compounds. The evening before calcium activity was measured, plates were sealed with parafilm and centrifuged at 1485×g for 2-min to get spheroids to the bottom of the well in a centered position. On the day of recording, the plate used for recording was placed in the read plate position inside of the FLIPR following the 2-hour Cal6 incubation at 37° C. Standard filter sets were used for Cal6 imaging with excitation set at 470-495 and emission at 515-575 nm. Fluorescent image reads were taken every 0.6 seconds for all plates, with exposure time of 0.03 and 50% excitation intensity. Recordings from the initial seven plates consisted of 1000 reads and were 10-min recordings with 2.5 gain, while the final two plates consisted of 500 reads (5-min recordings) with a gain of 2. Baseline recordings were taken across all plates and, if applicable, more recordings were obtained 1-, 30-, 60-, and/or 90-min after compound treatment. In between recordings, plates were wrapped in foil and placed back in the incubator at 37° C.
# (§5) 384 Pin Tool: A 384 well pin tool (Rexroth) was used to transfer compounds simultaneously to the spheroid plate. Prior to compound transfer, the pin tool went through four wash cycles where pins were rinsed with dimethyl sulfoxide (DMSO), followed by methanol, then deionized (DI) water, to ensure the pins were clean. Compound transfer via the 384 well pin tool occurred after the baseline recordings with the fluorescent imaging plate reader (FLIPR). Here, 60 nL of compound suspended in DMSO was transferred to 60 µL of media in each well, diluting the compounds by 1000-fold and giving a final DMSO concentration of 0.1%. Immediately after compound transfer, the spheroid plate was either placed back inside of the FLIPR for a recording 1-min after compound treatment or placed back in the incubator if post-treatment recording was >30-min after compound transfer.
# Calcium Activity Analysis: Calcium oscillatory peak detection data from FLIPR recordings was obtained through ScreenWorks 5.1 (Molecular Devices). Initial peak detection analysis occurred within ScreenWorks 5.1 via the PeakPro 2.0 module. Here, all parameters were set to be the same for all wells per plate. The event polarity was always set to positive and search vector length always set to 11. The baseline, trigger level, which is automatically set to 10% above the baseline, and dynamic threshold, which is the threshold for peak detection were automatically identified by the PeakPro 2.0 module. Wells were manually checked to ensure these parameters were accurately identified prior to analysis. After analysis, data from 18 peak parameters (mean peak amplitude, peak amplitude standard deviation (SD), peak count, mean peak rate, peak rate SD, peak spacing, peaking spacing SD, mean number of EAD-like peaks per well, CTD @ 50% (peak width at 50% amplitude), CTD @ 90% (peak width at 90% amplitude), rise slope, rise slope SD, mean peak rise time, peak rise time SD, decay slope, decay slope SD, mean peak decay time, and peak decay time SD) was exported to a STATALL file that could be converted to a Microsoft Excel spreadsheet. There, percent coefficient of variance (% CV) was calculated within each plate to measure how variable each parameter exported was. […] All data was normalized to the average of DMSO-treated control wells within each plate. […] Bar plots with individual values are reported as mean±SEM.
# PFC-like spheroids [3] = assay: FLIPR calcium activity with Cal6 dye, control compounds / DAMGO / AD compounds (Example 3); conditions: for effect on peak count and peak spacing: 10 μM DAMGO, recording 30-min later, then naloxone
# Description: (§6) Viruses and dyes: To assess calcium activity, the calcium dye, Cal6 (Molecular Devices), and genetically encoded calcium indicator, GCaMP6f (Addgene, cat #100836-AAV9) were used. Cal6 was used according to manufacturer's instructions and 10 mL of maintenance media was added to each vial. Two hours before activity was recorded, half of the spheroid media was exchanged for media with Cal6. The plates were covered in foil and placed in the incubator at 37° C. during the 2-hour (hr) incubation period. Since all viruses used were adeno-associated viruses (AAV), they were added to the media on day 7 to allow for 2-weeks expression prior to recording or testing. All viruses were added to the media at 2e5 multiplicity of infection (MOI). GCaMP6f infection occurred via an adeno-associated virus serotype 9 (AAV9) expressed under the CAG promoter for expression in both neurons and astrocytes. Designer receptors exclusively activated by designer drugs (DREADDs) viruses were used to stimulate and inhibit neuronal activity within spheroids. Both viruses were retrograde AAVs expressed under the human Synapsin promoter for expression in neurons and fused with an mCherry fluorophore. The DREADDs viruses either inserted the designer receptor hM4D(Gi), an inhibitory G-protein coupled receptor, or hM3D(Gq), a stimulatory G-protein coupled receptor. Clozapine-N-oxide (CNO, Tocris cat #4936) was suspended in dimethyl sulfoxide (DMSO) and used as the designer drug to activate the DREADDs viruses. CNO was tested at 1 and 10 μM, with data reported from the 1 μM concentration.
# as §4
# DAMGO was reconstituted in water at a 1 mM concentration and diluted in media to 20 µM such that spheroids would be treated with a final concentration of 10 μM after the half media exchange. Two aspects of OUD were modeled, chronic treatment along with opioid withdrawal. For spheroids subjected to chronic DAMGO treatment, 20 μM DAMGO in maintenance media was added via half media exchange beginning on day 10, with treatments occurring every other day for 10 days, giving a total of five treatments.
# as §5, with “0.1%.” for “0.1%. Immediately after compound transfer, the spheroid plate was either placed back inside of the FLIPR for a recording 1-min after compound treatment or placed back in the incubator if post-treatment recording was >30-min after compound transfer.”
# VTA-like spheroids [4] = assay: FLIPR calcium activity with Cal6 dye, control compounds / DAMGO (Example 3); conditions: VTA-like spheroids, chronic DAMGO pre-treatment
# Description: as §6, §4
# DAMGO was reconstituted in water at a 1 mM concentration and diluted in media to 20 µM such that spheroids would be treated with a final concentration of 10 μM after the half media exchange. Two aspects of OUD were modeled, chronic treatment along with opioid withdrawal. […]
# 384 Pin Tool: A 384 well pin tool (Rexroth) was used to transfer compounds simultaneously to the spheroid plate. […] Compound transfer via the 384 well pin tool occurred after the baseline recordings with the fluorescent imaging plate reader (FLIPR). […]
compound,measurement,setting,value
"Nc1ccncc1 [4-AP, 4-aminopyradine]",effect on calcium activity peak parameters compared to DMSO controls,VTA-like spheroids [1],"did not have any impact on PkCt, PkA, PpM, or PkSp at t1, t30, or t70; also recorded: significantly reduced PkDt at t1; also recorded: trend toward statistical significance for increasing the decay slope"
same,effect on calcium activity peak parameters compared to DMSO controls,PFC-like spheroids [2],"significantly increased PkCt 1-min after exposure; also recorded: For the t30 recording, there was a significant increase in peaks per minute (PpM) and the decay slope; also recorded: Significant increases in PkCt and PpM as well as a reduction in PkSp resulted from 4-AP 70-min after exposure"
NC(CCCP(=O)(O)O)C(=O)O (stereo not shown) [AP5],effect on calcium activity peak parameters compared to DMSO controls,VTA-like spheroids [1],did not impact calcium activity
same,effect on calcium activity peak parameters compared to DMSO controls,PFC-like spheroids [2],did not impact calcium activity
NC12CC3CC(CC(C3)C1)C2 [Amantadine],"reversal of A53T-induced deficits (peak count, peak width)",A53T VTA-like spheroids,only Ropinirole was found to reverse this 90-min after treatment
CN1[C@@H]2CC[C@H]1C[C@@H](OC(c1ccccc1)c1ccccc1)C2 [Benztropine],"reversal of A53T-induced deficits (peak count, peak width)",A53T VTA-like spheroids,only Ropinirole was found to reverse this 90-min after treatment
N#Cc1cc2[nH]c(=O)c(=O)[nH]c2cc1[N+](=O)[O-] [CNQX],effect on calcium activity peak parameters compared to DMSO controls,VTA-like spheroids [1],"total inhibition of calcium activity during the t1 recording and 30-min after CNQX treatment, PkCt and PpM were significantly increased while PkA, PkSp, and PkDt were all still reduced and had no impact on calcium activity in VTA-like spheroids during the t70 recording"
same,effect on calcium activity peak parameters compared to DMSO controls,PFC-like spheroids [2],total inhibition of calcium activity that lasted throughout the entire recording period
same,functional response (calcium activity peak parameters) to control compound,"PFC-like spheroids [3]; PFC-like spheroids, recordings 1-, 30-, 60-min after treatment","inhibited all activity in PFC-like spheroids for all three recordings (1-, 30-, and 60-min); also recorded: total inhibition that lasted throughout the 1-hr period"
N[C@@H](Cc1ccc(O)c(O)c1)C(=O)O [L-Dopa],"reversal of A53T-induced deficits (peak count, peak width)",A53T VTA-like spheroids,only Ropinirole was found to reverse this 90-min after treatment
C#CCN[C@@H]1CCc2ccccc21 [Rasagiline],"reversal of A53T-induced deficits (peak count, peak width)",A53T VTA-like spheroids,only Ropinirole was found to reverse this 90-min after treatment
CCN(C)C(=O)Oc1cccc([C@H](C)N(C)C)c1 [Rivastigmine],effect on peak count and spacing in Wt PFC-like spheroids,"PFC-like spheroids [3]; Wt PFC-like spheroids, 90 min after treatment",differences were observed in all groups except Rivastigmine
CCCN(CCC)CCc1cccc2c1CC(=O)N2 [Ropinirole],effect on subpeak count,A53T VTA-like spheroids,"3 and 10 μM, but not 1 μM, Ropinirole significantly reduced subpeak count"
same,"reversal of A53T-induced deficits (peak count, peak width)",A53T VTA-like spheroids,significantly reduce peak count and increase peak width to the level that they were no longer significantly different from Wt DMSO-treated control spheroids; also recorded: restored deficits across all 3 peak measures
Cc1ccc(C(=O)c2cc(O)c(O)c([N+](=O)[O-])c2)cc1 [Tolcapone],"reversal of A53T-induced deficits (peak count, peak width)",A53T VTA-like spheroids,only Ropinirole was found to reverse this 90-min after treatment
OC(CCN1CCCCC1)(c1ccccc1)C1CCCCC1 (stereo not shown) [Trihexyphenidyl],"reversal of A53T-induced deficits (peak count, peak width)",A53T VTA-like spheroids,only Ropinirole was found to reverse this 90-min after treatment
C=CCN1CC[C@]23c4c5ccc(O)c4O[C@H]2C(=O)CC[C@@]3(O)[C@H]1C5 [naloxone],reversal of deficits induced by chronic opioid treatment,VTA-like spheroids [4],reverses deficits induced by chronic opioid treatment in PFC-like but not VTA-like spheroids
same,effect on peak count and peak spacing,PFC-like spheroids [3]; PFC-like chronic DAMGO-treated spheroids,those treated with naloxone no longer showed significant differences in these peak parameters compared to DMSO-treated controls; also recorded: reverses deficits induced by chronic opioid treatment in PFC-like but not VTA-like spheroids
same,effect on peak count and peak spacing,PFC-like spheroids [3]; PFC-like control spheroids,reversed deficits in peak count and spacing in acute DAMGO-treated control spheroids
